{"source": "paper PMC10150354", "about": "“Linearization of the Brevicidine and Laterocidine Lipopeptides Yields Analogues That Retain Full Antibacterial Activity” (Journal of Medicinal Chemistry, 2023)", "key": {"E. coli (MCR-1)": {"test_system": "E. coli (MCR-1)", "format": "cell-based, Escherichia coli", "settings": "microbroth dilution per CLSI, MHB, 18 h at 37 °C, visual inspection, three technical replicates, E. coli 25922 carrying mcr-1", "experimental": "(§1) Linear laterocidine (LL-OH, 4) and linear brevicidine (LB-OH, 5) were first synthesized by Fmoc SPPS, starting from 2-chlorotrityl (2-CT) chloride resin. The antibacterial activity of these peptides was then compared to brevicidine (1) and laterocidine (2) using minimum inhibitory concentration (MIC)/microbroth dilution assays (Table 1). The MICs of all peptides were determined against a panel of Gram-negative and Gram-positive ESKAPE pathogens. Additionally, a strain of E. coli carrying the mcr-1 gene was included in the panel. The mcr-1 gene is a transferrable plasmid that confers resistance against colistin, a last-resort antibiotic for Gram-negative infections, by reducing the overall negative charge of lipopolysaccharide (LPS) through modification of lipid A with phosphoethanolamine. The propensity for cationic antibiotics to bind to the cell membrane is therefore reduced. This gene has been observed in more than 27 bacterial species over six continents.[26] The spread of the mcr-1 gene could render colistin ineffectual; therefore, novel antibacterials are urgently required to overcome this form of resistance.\n(§2) All minimum inhibitory concentrations (MICs) were determined according to Clinical and Laboratory Standards Institute (CLSI) guidelines. Blood agar plates were inoculated with glycerol stocks of E. coli ATCC 25922, K. pneumoniae ATCC 13883, A. baumannii ATCC 17961, P. aeruginosa PAO1, and S. aureus USA300. The inoculated agar plates were then incubated for 16 h at 37 °C. Individually grown colonies were subsequently used to inoculate 5 mL aliquots of TSB that were then incubated at 37 °C with shaking at 220 rpm. E. coli 25922 MCR-1 glycerol stock was used to inoculate 5 mL of TSB supplemented with kanamycin that was then incubated for 16 h at 37 °C with shaking at 220 rpm. The next day the culture was diluted 100-fold in TSB supplemented with kanamycin and incubated at 37 °C with shaking at 220 rpm. In parallel, the lipopeptide antibiotics DMSO stocks to be assessed were serially diluted with MHB in polypropylene 96-well plates (50 μL in each well). Colistin sulfate stocks were dissolved in water before being diluted with MHB. Aliquots of the inoculated TSB were incubated until an OD600 of around 0.5 was reached. The bacterial suspensions were then diluted with MHB (2 × 10^5 CFU/mL) and added to the microplates containing the test compounds (50 μL to each well). The well plates were sealed with an adhesive membrane and after 18 h of incubation at 37 °C with shaking at 600 rpm, the wells were visually inspected for bacterial growth. MIC values reported are based on three technical replicates and defined as the lowest concentration of the compound that prevented visible growth of bacteria."}, "E. coli ATCC 25922": {"test_system": "E. coli ATCC 25922", "format": "cell-based, Escherichia coli", "settings": "for Antibacterial activity (MIC) E. coli ATCC 25922: microbroth dilution per CLSI, MHB, 18 h at 37 °C, visual inspection, three technical replicates; for MIC (µg/mL) against E. coli (ATCC 25922): (Supplement 2)", "experimental": "as §1, §2"}, "K. pneumoniae ATCC 13883": {"test_system": "K. pneumoniae ATCC 13883", "format": "cell-based, Klebsiella pneumoniae", "settings": "microbroth dilution per CLSI, MHB, 18 h at 37 °C, visual inspection, three technical replicates", "experimental": "as §1, §2"}, "A. baumannii ATCC 17961": {"test_system": "A. baumannii ATCC 17961", "format": "cell-based, Acinetobacter baumannii", "settings": "microbroth dilution per CLSI, MHB, 18 h at 37 °C, visual inspection, three technical replicates", "experimental": "as §1, §2"}, "P. aeruginosa PAO1": {"test_system": "P. aeruginosa PAO1", "format": "cell-based, Pseudomonas aeruginosa", "settings": "microbroth dilution per CLSI, MHB, 18 h at 37 °C, visual inspection, three technical replicates", "experimental": "as §1, §2"}, "S. aureus USA300": {"test_system": "S. aureus USA300", "format": "cell-based, Staphylococcus aureus", "settings": "microbroth dilution per CLSI, MHB, 18 h at 37 °C, visual inspection, three technical replicates", "experimental": "as §1, §2"}}, "note": "Where a SMILES comes first, the peptide text is derived from it. Bridges are numbered along the chain shown (N, C = ends). [ ]: non-standard residue; d: D form. The star is where a group is joined. ξ: configuration not given here. Octanoyl(7-Me) = CC(C)CCCCCC(=O)*; Hexanoyl(4ξ-Me) = CCC(C)CCC(=O)*; dOrn = NCCC[C@@H](N)C(=O)O; Orn = NCCC[C@H](N)C(=O)O"}
{"smiles": "CCC(C)CCC(=O)N[C@H](CC(N)=O)C(=O)N[C@H](Cc1ccc(O)cc1)C(=O)N[C@H](Cc1c[nH]c2ccccc12)C(=O)N[C@H](CCCN)C(=O)N[C@@H](CCCN)C(=O)NCC(=O)N[C@H](CCCN)C(=O)N[C@@H](Cc1c[nH]c2ccccc12)C(=O)N[C@@H]1C(=O)N[C@@H]([C@@H](C)CC)C(=O)NCC(=O)N[C@@H](CO)C(=O)O[C@@H]1C", "note": "(stereo partly drawn) [Brev (1), brevicidine] ({Hexanoyl(4ξ-Me)}-[dN][dY][dW][dOrn][Orn]G[dOrn]WTIGS; ester 9-C)", "values": [{"measurement": "Antibacterial activity (MIC) E. coli (MCR-1)", "setting": "E. coli (MCR-1)", "result": 4, "unit": "µg/mL"}, {"measurement": "Antibacterial activity (MIC) E. coli ATCC 25922", "setting": "E. coli ATCC 25922", "result": 4, "unit": "µg/mL"}, {"measurement": "Antibacterial activity (MIC) K. pneumoniae ATCC 13883", "setting": "K. pneumoniae ATCC 13883", "result": 2, "unit": "µg/mL"}, {"measurement": "Antibacterial activity (MIC) A. baumannii ATCC 17961", "setting": "A. baumannii ATCC 17961", "result": 4, "unit": "µg/mL"}, {"measurement": "Antibacterial activity (MIC) P. aeruginosa PAO1", "setting": "P. aeruginosa PAO1", "result": 8, "unit": "µg/mL"}, {"measurement": "Antibacterial activity (MIC) S. aureus USA300", "setting": "S. aureus USA300", "result": ">32", "unit": "µg/mL"}]}
{"smiles": "CC[C@H](C)[C@@H]1NC(=O)[C@@H](NC(=O)[C@H](Cc2c[nH]c3ccccc23)NC(=O)[C@@H](CCCN)NC(=O)CNC(=O)[C@H](CCCN)NC(=O)[C@@H](CCCN)NC(=O)[C@@H](Cc2c[nH]c3ccccc23)NC(=O)[C@@H](Cc2ccc(O)cc2)NC(=O)[C@@H](CO)NC(=O)CCCCCC(C)C)[C@@H](C)OC(=O)CNC(=O)CNC(=O)[C@H](CC(N)=O)NC1=O", "note": "[Lat (2), laterocidine] ({Octanoyl(7-Me)}-[dS][dY][dW][dOrn][Orn]G[dOrn]WTINGG; ester 9-C)", "values": [{"measurement": "Antibacterial activity (MIC) E. coli (MCR-1)", "setting": "E. coli (MCR-1)", "result": 2, "unit": "µg/mL"}, {"measurement": "Antibacterial activity (MIC) E. coli ATCC 25922", "setting": "E. coli ATCC 25922", "result": 2, "unit": "µg/mL"}, {"measurement": "Antibacterial activity (MIC) K. pneumoniae ATCC 13883", "setting": "K. pneumoniae ATCC 13883", "result": "2 to 4", "unit": "µg/mL"}, {"measurement": "Antibacterial activity (MIC) A. baumannii ATCC 17961", "setting": "A. baumannii ATCC 17961", "result": 2, "unit": "µg/mL"}, {"measurement": "Antibacterial activity (MIC) P. aeruginosa PAO1", "setting": "P. aeruginosa PAO1", "result": 4, "unit": "µg/mL"}, {"measurement": "Antibacterial activity (MIC) S. aureus USA300", "setting": "S. aureus USA300", "result": ">32", "unit": "µg/mL"}]}
{"smiles": "CC[C@H](C)[C@H](NC(=O)[C@H](CC(C)C)NC(=O)[C@H](Cc1c[nH]c2ccccc12)NC(=O)[C@@H](CCCN)NC(=O)CNC(=O)[C@H](CCCN)NC(=O)[C@@H](CCCN)NC(=O)[C@@H](Cc1c[nH]c2ccccc12)NC(=O)[C@@H](Cc1ccc(O)cc1)NC(=O)[C@@H](CO)NC(=O)CCCCCC(C)C)C(=O)N[C@@H](CC(N)=O)C(=O)NCC(=O)NCC(N)=O", "note": "[LL(Leu9)-NH2 (42)] ({Octanoyl(7-Me)}-[dS][dY][dW][dOrn][Orn]G[dOrn]WLINGG-NH2)", "values": [{"measurement": "Antibacterial activity (MIC) E. coli (MCR-1)", "setting": "E. coli (MCR-1)", "result": 8, "unit": "µg/mL"}, {"measurement": "MIC (µg/mL) against E. coli (ATCC 25922)", "setting": "E. coli ATCC 25922", "result": 4, "unit": "µg/mL"}, {"measurement": "Antibacterial activity (MIC) E. coli ATCC 25922", "setting": "E. coli ATCC 25922", "result": 4, "unit": "µg/mL"}, {"measurement": "Antibacterial activity (MIC) K. pneumoniae ATCC 13883", "setting": "K. pneumoniae ATCC 13883", "result": 8, "unit": "µg/mL"}, {"measurement": "Antibacterial activity (MIC) A. baumannii ATCC 17961", "setting": "A. baumannii ATCC 17961", "result": 4, "unit": "µg/mL"}, {"measurement": "Antibacterial activity (MIC) P. aeruginosa PAO1", "setting": "P. aeruginosa PAO1", "result": 8, "unit": "µg/mL"}, {"measurement": "Antibacterial activity (MIC) S. aureus USA300", "setting": "S. aureus USA300", "result": ">32", "unit": "µg/mL"}]}
{"smiles": "CC[C@H](C)[C@H](NC(=O)[C@@H](NC(=O)[C@H](Cc1c[nH]c2ccccc12)NC(=O)[C@@H](CCCN)NC(=O)CNC(=O)[C@H](CCCN)NC(=O)[C@@H](CCCN)NC(=O)[C@@H](Cc1c[nH]c2ccccc12)NC(=O)[C@@H](Cc1ccc(O)cc1)NC(=O)[C@@H](CO)NC(=O)CCCCCC(C)C)[C@@H](C)O)C(=O)N[C@@H](CC(N)=O)C(=O)NCC(=O)N[C@@H](C)C(N)=O", "note": "[LL(Ala13)-NH2 (41)] ({Octanoyl(7-Me)}-[dS][dY][dW][dOrn][Orn]G[dOrn]WTINGA-NH2)", "values": [{"measurement": "Antibacterial activity (MIC) E. coli (MCR-1)", "setting": "E. coli (MCR-1)", "result": 8, "unit": "µg/mL"}, {"measurement": "MIC (µg/mL) against E. coli (ATCC 25922)", "setting": "E. coli ATCC 25922", "result": "4 to 8", "unit": "µg/mL"}, {"measurement": "Antibacterial activity (MIC) E. coli ATCC 25922", "setting": "E. coli ATCC 25922", "result": "4 to 8", "unit": "µg/mL"}, {"measurement": "Antibacterial activity (MIC) K. pneumoniae ATCC 13883", "setting": "K. pneumoniae ATCC 13883", "result": 8, "unit": "µg/mL"}, {"measurement": "Antibacterial activity (MIC) A. baumannii ATCC 17961", "setting": "A. baumannii ATCC 17961", "result": 8, "unit": "µg/mL"}, {"measurement": "Antibacterial activity (MIC) P. aeruginosa PAO1", "setting": "P. aeruginosa PAO1", "result": 4, "unit": "µg/mL"}, {"measurement": "Antibacterial activity (MIC) S. aureus USA300", "setting": "S. aureus USA300", "result": ">32", "unit": "µg/mL"}]}
{"smiles": "CCC(C)CCC(=O)N[C@H](CC(N)=O)C(=O)N[C@H](C)C(=O)N[C@H](Cc1c[nH]c2ccccc12)C(=O)N[C@H](CCCN)C(=O)N[C@@H](CCCN)C(=O)NCC(=O)N[C@H](CCCN)C(=O)N[C@@H](Cc1c[nH]c2ccccc12)C(=O)N[C@H](C(=O)N[C@H](C(=O)NCC(=O)N[C@@H](CO)C(N)=O)[C@@H](C)CC)[C@@H](C)O", "note": "(stereo partly drawn) [LB(D-Ala2)-NH2 (18)] ({Hexanoyl(4ξ-Me)}-[dN][dA][dW][dOrn][Orn]G[dOrn]WTIGS-NH2)", "values": [{"measurement": "MIC (µg/mL) against E. coli (ATCC 25922)", "setting": "E. coli ATCC 25922", "result": ">32", "unit": "µg/mL"}]}
